Source: patent US7282356B2, “D-aminoacylase mutants” (Daicel Chemical Industries, Ltd., priority 2002, dated 2007)

Experiments:
[1] = test system: Methylobacterium mesophilicum D-aminoacylase; details: at concentrations as high as 100 g/l; cited from earlier work
[2] = target: T1, Alcaligenes denitrificans subsp. xylosoxydans MI-4 D-aminoacylase mutant A154-0043 (A154V of SEQ ID NO: 1) (Alcaligenes xylosoxydans xylosoxydans, UniProt P72349, A154V); assay: Inhibition/kinetics test of purified mutant D-aminoacylase A154-0043; format: biochemical
T1 construct: made in house; host or cells: E. coli
Description: (§1) The enzyme reaction can be achieved by incubating 1.0 ml of a reaction solution containing 20 mM N-acetyl-D-tryptophan (Sigma), 50 mM Tris-hydrochloride buffer (pH 7.5), and an enzyme solution at 30° C. for 10 minutes. Then, the reaction is stopped by adding 0.5 ml of a stop solution containing TCA (comprising 0.11 M trichloroacetic acid, 0.22 M sodium acetate, and 0.33 M acetic acid). The amount of D-tryptophan produced can be determined by TNBS method (Biosci. Biotech. Biochem., 58, 24 (1994)).
(§2) For example, 0.25 ml of 100 mM Na2B4O7 is added to 0.25 ml of the stop solution, 10 μl of 110 mM TNBS (trinitrobenzenesulfonic acid) solution is added to the mixed solution, and immediately thereafter, the resulting mixture is stirred. After the mixture is allowed to stand for five minutes, 1 ml of 100 mM NaHPO4 containing 1.5 mM Na2SO3 is added to the mixture to stop the color reaction. Then, the absorbance of the solution is determined at 420 nm. One unit of the enzyme activity is defined as the amount of enzyme that catalyzes the production of 1 μmol of D-tryptophan at 30° C. for one minute.
(§3) The rate constants of the reaction with N-acetyl-D-tryptophan and N-acetyl-L-tryptophan that is catalyzed by the thus-purified wild-type derived from Alcaligenes denitrificans subsp. xylosoxydans MI-4 or mutant D-aminoacylases of the present invention, can be determined according to the methods described in “Lectures for Biochemical Experiments 21: Introduction to Experimental Approach to Enzyme Kinetics” and “Basic Experimental Methods for Proteins and Enzymes, 2nd Ed.” Michaelis constant is represented by Km; the maximal rate is Vmax; inhibition constant is Ki; the constant for reaction inhibition by excess substrate is Ks′.
(§4) The mutant D-aminoacylase A154-0043 was purified from an E. coli transformant having the plasmid pSL-AD07 that contains DNA encoding the mutant D-aminoacylase A154-0043 by the same method as described in Example 19.
(§5) The D-aminoacylases purified in Examples 20 to 23 were tested for the inhibition by N-acetyl-D-tryptophan and N-acetyl-L-tryptophan. The reaction rate constants for N-acetyl-D-tryptophan and N-acetyl-L-tryptophan were determined according to the methods described in “Lectures for Biochemical Experiments 21: Introduction to Experimental Approach to Enzyme Kinetics” and “Basic Experimental Methods for Proteins and Enzymes, 2nd Ed.” Michaelis constant is represented by Km; the maximal rate is Vmax; inhibition constant is Ki; the constant for reaction inhibition by excess substrate is represented by Ks′. Km and Vmax were determined from a Lineweaver-Burk reciprocal plot; Ki was determined from a second-order plot (Royer); and Ks′ was determined from a [S] −1/v plot.

[3] = target: T2, Alcaligenes denitrificans subsp. xylosoxydans MI-4 D-aminoacylase mutant 3AD-0089 (A154V/M347A/R374F of SEQ ID NO: 1) (Alcaligenes xylosoxydans xylosoxydans, UniProt P72349, A154V/M347A/R374F); assay: Inhibition/kinetics test of purified mutant D-aminoacylase 3AD-0089; format: biochemical
T2 construct: made in house; host or cells: E. coli
Description: as §1, §2, §3
(§6) The mutant D-aminoacylase 3AD-0089 was purified from an E. coli transformant having the plasmid pSL-AD10 that contains DNA encoding the mutant D-aminoacylase 3AD-0089 by the same method as described in Example 19.
as §5

[4] = target: T3, Alcaligenes denitrificans subsp. xylosoxydans MI-4 D-aminoacylase mutant M347-0133 (M347A of SEQ ID NO: 1) (Alcaligenes xylosoxydans xylosoxydans, UniProt P72349, M347A); assay: Inhibition/kinetics test of purified mutant D-aminoacylase M347-0133; format: biochemical
T3 construct: made in house; host or cells: E. coli
Description: as §1, §2, §3
(§7) The mutant D-aminoacylase M347-0133 was purified from an E. coli transformant having the plasmid pSL-AD08 that contains DNA encoding the mutant D-aminoacylase M347-0133 by the same method as described in Example 19.
as §5

[5] = target: Alcaligenes denitrificans subsp. xylosoxydans MI-4 D-aminoacylase, wild-type, SEQ ID NO: 1 (Alcaligenes xylosoxydans xylosoxydans, UniProt P72349); assay: Inhibition/kinetics test of purified wild-type D-aminoacylase
[6] = test system: Nocardioides thermolilacinus D-aminoacylase; details: at concentrations as high as 100 g/l; cited from earlier work
[7] = target: T4, Alcaligenes denitrificans subsp. xylosoxydans MI-4 D-aminoacylase mutant R374-0017 (R374F of SEQ ID NO: 1) (Alcaligenes xylosoxydans xylosoxydans, UniProt P72349, R374F); assay: Inhibition/kinetics test of purified mutant D-aminoacylase R374-0017; format: biochemical
T4 construct: made in house; host or cells: E. coli
Description: as §1, §2, §3
(§8) The mutant D-aminoacylase R374-0017 was purified from an E. coli transformant having the plasmid pSL-AD09 that contains DNA encoding the mutant D-aminoacylase R374-0017 by the same method as described in Example 19.
as §5

[8] = test system: CC(=O)N[C@H](Cc1c[nH]c2ccccc12)C(=O)O; assay: Inhibition/kinetics test of purified mutant D-aminoacylase 3AD-0089; format: biochemical, Alcaligenes denitrificans subsp. xylosoxydans MI-4; details: other: 30° C., pH7.5, for N-acetyl-D-tryptophan, pH 7.5
Description: as §1, §2, §3, §6, §5

[9] = test system: CC(=O)N[C@H](Cc1c[nH]c2ccccc12)C(=O)O; assay: Inhibition/kinetics test of purified mutant D-aminoacylase A154-0043; format: biochemical, Alcaligenes denitrificans subsp. xylosoxydans MI-4; details: other: 30° C., pH7.5, for N-acetyl-D-tryptophan, pH 7.5
Description: as §1, §2, §3, §4, §5

[10] = test system: CC(=O)N[C@H](Cc1c[nH]c2ccccc12)C(=O)O; assay: Inhibition/kinetics test of purified mutant D-aminoacylase M347-0133; format: biochemical, Alcaligenes denitrificans subsp. xylosoxydans MI-4; details: other: 30° C., pH7.5, for N-acetyl-D-tryptophan, pH 7.5
Description: as §1, §2, §3, §7, §5

[11] = test system: CC(=O)N[C@H](Cc1c[nH]c2ccccc12)C(=O)O; assay: Inhibition/kinetics test of purified mutant D-aminoacylase R374-0017; format: biochemical, Alcaligenes denitrificans subsp. xylosoxydans MI-4; details: other: 30° C., pH7.5, for N-acetyl-D-tryptophan, pH 7.5
Description: as §1, §2, §3, §8, §5

[12] = test system: CC(=O)N[C@H](Cc1c[nH]c2ccccc12)C(=O)O; assay: purified protein, by the assay type; details: other: 30° C., pH7.5, for N-acetyl-D-tryptophan, pH 7.5
[13] = D-aminoacylase activity assay (20 mM N-acetyl-D-tryptophan, TNBS method); format: biochemical; details: cell extract of E. coli JM109 transformant
Description: as §1, §2

[14] = 30° C., pH7.5, for N-acetyl-D-tryptophan
[15] = 30° C., pH7.5, substrate inhibition by N-acetyl-D-tryptophan

T1 sequence (P72349 whole entry A154V): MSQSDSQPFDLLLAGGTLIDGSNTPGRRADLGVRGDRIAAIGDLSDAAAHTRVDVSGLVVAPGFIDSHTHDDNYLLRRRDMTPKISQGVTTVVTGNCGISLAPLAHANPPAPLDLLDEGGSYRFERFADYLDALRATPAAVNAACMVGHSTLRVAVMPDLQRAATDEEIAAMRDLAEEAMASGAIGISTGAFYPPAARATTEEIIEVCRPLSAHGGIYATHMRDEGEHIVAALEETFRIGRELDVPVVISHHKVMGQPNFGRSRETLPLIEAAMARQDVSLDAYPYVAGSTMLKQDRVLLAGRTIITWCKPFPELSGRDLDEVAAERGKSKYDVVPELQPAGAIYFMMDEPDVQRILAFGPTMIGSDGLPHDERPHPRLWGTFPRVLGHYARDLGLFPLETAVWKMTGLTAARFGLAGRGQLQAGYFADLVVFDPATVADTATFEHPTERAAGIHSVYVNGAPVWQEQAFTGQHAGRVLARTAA
T4 sequence (P72349 whole entry R374F): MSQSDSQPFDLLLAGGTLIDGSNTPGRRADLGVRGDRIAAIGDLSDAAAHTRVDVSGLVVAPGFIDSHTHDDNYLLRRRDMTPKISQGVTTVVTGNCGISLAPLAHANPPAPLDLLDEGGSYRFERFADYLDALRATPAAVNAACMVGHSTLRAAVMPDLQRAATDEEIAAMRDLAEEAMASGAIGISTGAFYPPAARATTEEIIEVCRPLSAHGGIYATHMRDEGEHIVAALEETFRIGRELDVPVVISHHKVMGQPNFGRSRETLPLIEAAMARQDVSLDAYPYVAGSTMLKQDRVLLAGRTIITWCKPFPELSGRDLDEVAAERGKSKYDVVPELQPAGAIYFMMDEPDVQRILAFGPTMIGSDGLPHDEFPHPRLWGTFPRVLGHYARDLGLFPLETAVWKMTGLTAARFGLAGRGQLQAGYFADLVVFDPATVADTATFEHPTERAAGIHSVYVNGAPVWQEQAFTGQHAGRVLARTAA
T2 sequence (P72349 whole entry A154V/M347A/R374F): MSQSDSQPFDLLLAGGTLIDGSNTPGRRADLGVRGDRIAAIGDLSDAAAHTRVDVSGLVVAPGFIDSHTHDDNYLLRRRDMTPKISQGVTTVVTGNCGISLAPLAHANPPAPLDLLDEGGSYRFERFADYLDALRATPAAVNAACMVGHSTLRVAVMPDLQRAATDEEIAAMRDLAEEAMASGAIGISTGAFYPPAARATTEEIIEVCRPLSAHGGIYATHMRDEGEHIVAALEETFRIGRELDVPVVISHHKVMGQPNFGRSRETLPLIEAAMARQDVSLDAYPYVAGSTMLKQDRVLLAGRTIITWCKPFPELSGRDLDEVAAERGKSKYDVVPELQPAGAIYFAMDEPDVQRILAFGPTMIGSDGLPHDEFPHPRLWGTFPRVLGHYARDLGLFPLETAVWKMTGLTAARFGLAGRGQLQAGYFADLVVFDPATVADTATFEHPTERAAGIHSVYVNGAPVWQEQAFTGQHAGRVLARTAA
T3 sequence (P72349 whole entry M347A): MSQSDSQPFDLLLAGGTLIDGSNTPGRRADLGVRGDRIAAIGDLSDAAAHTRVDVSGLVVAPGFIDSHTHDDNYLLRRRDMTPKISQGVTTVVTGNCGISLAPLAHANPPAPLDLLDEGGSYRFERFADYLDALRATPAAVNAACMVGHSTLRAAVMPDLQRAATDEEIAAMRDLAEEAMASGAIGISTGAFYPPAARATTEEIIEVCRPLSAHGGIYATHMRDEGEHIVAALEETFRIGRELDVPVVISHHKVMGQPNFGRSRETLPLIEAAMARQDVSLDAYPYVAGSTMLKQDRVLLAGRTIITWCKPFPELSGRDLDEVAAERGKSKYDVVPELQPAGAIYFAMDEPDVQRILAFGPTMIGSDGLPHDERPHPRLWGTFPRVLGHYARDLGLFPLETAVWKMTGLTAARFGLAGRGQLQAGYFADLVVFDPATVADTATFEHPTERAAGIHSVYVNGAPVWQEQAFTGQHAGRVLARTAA

CC(=O)N[C@H](Cc1c[nH]c2ccccc12)C(=O)O [N-acetyl-D-tryptophan]
inhibition by the substrate [1]: hardly inhibited
Vmax (Lineweaver-Burk reciprocal plot) [2, 14]: 1031
Ks′ (constant for reaction inhibition by excess substrate; [S]−1/v plot) [2, 15]: 13.67
Vmax (Lineweaver-Burk reciprocal plot) [3, 14]: 357
substrate inhibition ([3]; in the presence of 99 mM N-acetyl-D-tryptophan): not detectable
Vmax (Lineweaver-Burk reciprocal plot) [4, 14]: 1000
Ks′ (constant for reaction inhibition by excess substrate; [S]−1/v plot) [4, 15]: 77.00
Vmax (Lineweaver-Burk reciprocal plot) [5, 14]: 685
Ks′ (constant for reaction inhibition by excess substrate; [S]−1/v plot) [5, 15]: 1.29
inhibition by the substrate [6]: hardly inhibited
Vmax (Lineweaver-Burk reciprocal plot) [7, 14]: 1000
Ks′ (constant for reaction inhibition by excess substrate; [S]−1/v plot) [7, 15]: 93.00

CC(=O)N[C@@H](Cc1c[nH]c2ccccc12)C(=O)O [N-acetyl-L-tryptophan]
Ki [2]: 6.4 mM
competitive inhibition ([3]; in the presence of 89 mM N-acetyl-L-tryptophan): not detectable
Ki [4]: 12.3 mM
Ki [5]: 2.6 mM
Ki [7]: 7.46 mM

Alcaligenes denitrificans subsp. xylosoxydans MI-4 D-aminoacylase mutant 3AD-0089 (A154V/M347A/R374F of SEQ ID NO: 1) (Achromobacter xylosoxidans; A154V/M347A/R374F)
Km [8]: 1460 µM

Alcaligenes denitrificans subsp. xylosoxydans MI-4 D-aminoacylase mutant A154-0043 (A154V of SEQ ID NO: 1) (Achromobacter xylosoxidans; A154V)
Km [9]: 3440 µM

Alcaligenes denitrificans subsp. xylosoxydans MI-4 D-aminoacylase mutant M347-0133 (M347A of SEQ ID NO: 1) (Achromobacter xylosoxidans; M347A)
Km [10]: 1420 µM

Alcaligenes denitrificans subsp. xylosoxydans MI-4 D-aminoacylase mutant R374-0017 (R374F of SEQ ID NO: 1) (Achromobacter xylosoxidans; R374F)
Km [11]: 1940 µM

Alcaligenes denitrificans subsp. xylosoxydans MI-4 D-aminoacylase, wild-type, SEQ ID NO: 1 (Achromobacter xylosoxidans)
Km [12]: 2530 µM

B1: D-aminoacylase produced with the modified D-aminoacylase gene: wild-type amino acid sequence (SEQ ID NO: 1) expressed from codon-modified gene SEQ ID NO: 3 in plasmid pSL-ADD6 (protein)
chain: MSQSDSQPFDLLLAGGTLIDGSNTPGRRADLGVRGDRIAAIGDLSDAAAHTRVDVSGLVVAPGFIDSHTHDDNYLLRRRDMTPKISQGVTTVVTGNCGISLAPLAHANPPAPLDLLDEGGSYRFERFADYLDALRATPAAVNAACMVGHSTLRAAVMPDLQRAATDEEIAAMRDLAEEAMASGAIGISTGAFYPPAARATTEEIIEVCRPLSAHGGIYATHMRDEGEHIVAALEETFRIGRELDVPVVISHHKVMGQPNFGRSRETLPLIEAAMARQDVSLDAYPYVAGSTMLKQDRVLLAGRTIITWCKPFPELSGRDLDEVAAERGKSKYDVVPELQPAGAIYFMMDEPDVQRILAFGPTMIGSDGLPHDERPHPRLWGTFPRVLGHYARDLGLFPLETAVWKMTGLTAARFGLAGRGQLQAGYFADLVVFDPATVADTATFEHPTERAAGIHSVYVNGAPVWQEQAFTGQHAGRVLARTAA
modifications: Alcaligenes denitrificans subsp. xylosoxydans MI-4
D-aminoacylase activity of cell extract [13]: 86 U/mg
